pEC50: −log10 of the molar value.
Columns and labels:
[1] = Half life in mouse liver microsomes; type: ADME, Microsome
[2] = Half life in human liver microsomes; type: ADME, Microsome
[3] = Half life in rat liver microsomes; type: ADME, Microsome
[4] = molecular target: T1, Nuclear receptor ROR-gamma (Homo sapiens, UniProt P51449); assay: Inverse agonist activity at RORgammat in human whole blood assessed as IL-17 production by ELISA; type: tissue-based
T1 sequence (P51449 whole entry): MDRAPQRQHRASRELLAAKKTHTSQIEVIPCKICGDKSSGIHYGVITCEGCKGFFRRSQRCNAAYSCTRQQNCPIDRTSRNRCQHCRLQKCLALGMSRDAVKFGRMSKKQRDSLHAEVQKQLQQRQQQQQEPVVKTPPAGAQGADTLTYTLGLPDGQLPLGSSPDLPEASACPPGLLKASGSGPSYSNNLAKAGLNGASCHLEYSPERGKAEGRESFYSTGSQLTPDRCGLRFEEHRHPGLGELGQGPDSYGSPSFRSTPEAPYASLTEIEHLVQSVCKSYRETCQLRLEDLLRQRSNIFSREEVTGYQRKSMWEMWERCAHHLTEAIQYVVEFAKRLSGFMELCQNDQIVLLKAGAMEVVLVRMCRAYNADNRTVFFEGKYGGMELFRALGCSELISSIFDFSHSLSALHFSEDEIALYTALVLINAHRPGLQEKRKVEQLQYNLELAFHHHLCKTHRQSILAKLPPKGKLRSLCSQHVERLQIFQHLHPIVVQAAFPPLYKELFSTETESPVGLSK

[5] = molecular target: T1, Nuclear receptor ROR-gamma; assay: Inverse agonist activity at Gal4-fused RORgammat LBD (unknown origin) by reporter gene assay
[6] = (§1) AUC in IL-23 induced acanthosis C57BL/6 mouse model of psoriasis measured as (3R,5S)-3-Fluoro-5-((3aR,9bR)-9b-((4-fluorophenyl)sulfonyl)-7-(perfluoropropan-2-yl)-2,3,3a,4,5,9b-hexahydro-1H-benzo[e]indole-3-carbonyl)-1-(2-hydroxy-2-methylpropyl)pyrrolidin-2-one at 15 mg/kg, po qd administered for 2 hrs before IL-23 injection measured on day 1; type: ADME, organism-based; parameters: time 1 day, dose 15 mg/kg; settings: in vivo, 24 h
[7] = as §1, with “45” for “15”; type: ADME, organism-based; parameters: time 1 day, dose 45 mg/kg; settings: in vivo, 24 h
[8] = system: Mus musculus; assay: (§2) Suppression of ear thickness in IL-23 induced acanthosis C57BL/6 mouse model of psoriasis measured as (3R,5S)-3-Fluoro-5-((3aR,9bR)-9b-((4-fluorophenyl)sulfonyl)-7-(perfluoropropan-2-yl)-2,3,3a,4,5,9b-hexahydro-1H-benzo[e]indole-3-carbonyl)-1-(2-hydroxy-2-methylpropyl)pyrrolidin-2-one at 15 mg/kg, po qd for 9 days 2 hrs before IL-23 injection measured every other day relative to IL-23 antibody treatment; type: functional; settings: C57BL/6, po, 216 h, time 9 day
[9] = (§3) Drug concentration in IL-23 induced acanthosis in C57BL/6 mouse measured as (3R,5S)-3-Fluoro-5-((3aR,9bR)-9b-((4-fluorophenyl)sulfonyl)-7-(perfluoropropan-2-yl)-2,3,3a,4,5,9b-hexahydro-1H-benzo[e]indole-3-carbonyl)-1-(2-hydroxy-2-methylpropyl)pyrrolidin-2-one at 15 mg/kg, po qd administered for 9 days 2 hrs before IL-23 injection; type: ADME, organism-based; settings: in vivo, 216 h, time 9 day, read-out: Ct
[10] = system: Mus musculus; assay: as §2, with “45” for “15”, “qd administered” for “qd”; type: functional; settings: C57BL/6, po, 216 h, time 9 day
[11] = Solubility of the compound at pH 6.7; type: physicochemical; settings: buffer
[12] = (§4) AUC in IL-23 induced acanthosis C57BL/6 mouse model of psoriasis measured as (3R,5S)-3-Fluoro-5-((3aR,9bR)-9b-((4-fluorophenyl)sulfonyl)-7-(perfluoropropan-2-yl)-2,3,3a,4,5,9b-hexahydro-1H-benzo[e]indole-3-carbonyl)-1-(2-hydroxy-2-methylpropyl)pyrrolidin-2-one at 45 mg/kg, po qd administered for 9 days 2 hrs before IL-23 injection; type: ADME, organism-based; parameters: time 9 day, dose 45 mg/kg; settings: in vivo, 216 h
[13] = as §4, with “Cmax” for “AUC”, “15” for “45”; type: ADME, organism-based; parameters: route oral, dose 15 mg/kg, time 9 day; settings: in vivo, 216 h
[14] = as §4, with “Toxicity” for “AUC”, “psoriasis assessed as change in body weight” for “psoriasis”, “at 5 to” for “at”, “injection measured every other day” for “injection”; type: organism-based; settings: in vivo, 0.15 h, dose 5-45 mg/kg, time 9 min
[15] = as §4, with “Cmax” for “AUC”, “5” for “45”; type: ADME, organism-based; parameters: route oral, dose 5 mg/kg, time 9 day; settings: in vivo, 216 h
[16] = as §3, with “45” for “15”; type: ADME, organism-based; settings: in vivo, 216 h, time 9 day, read-out: Ct
[17] = as §3, with “for” for “for 9 days”, “injection measured on day 1” for “injection”; type: ADME, organism-based; settings: in vivo, 24 h, time 1 day, read-out: Ct
[18] = as §3, with “5” for “15”; type: ADME, organism-based; settings: in vivo, 216 h, time 9 day, read-out: Ct
[19] = as §1, with “5” for “15”; type: ADME, organism-based; parameters: time 1 day, dose 5 mg/kg; settings: in vivo, 24 h
[20] = as §4, with “15” for “45”; type: ADME, organism-based; parameters: time 9 day, dose 15 mg/kg; settings: in vivo, 216 h
[21] = Ratio of IC90 for inverse agonist activity at RORgammat in human whole blood assessed as IL-17 production by ELISA to drug concentration in IL-23 induced acanthosis in […] mouse measured as (3R,5S)-3-Fluoro-5-((3aR,9bR)-9b-((4-fluorophenyl)sulfonyl)-7-(perfluoropropan-2-yl)-2,3,3a,4,5,9b-hexahydro-1H-benzo[e]indole-3-carbonyl)-1-(2-hydroxy-2-methylpropyl)pyrrolidin-2-one at 45 mg/kg, po qd …
[22] = as §4, with “Cmax” for “AUC”; type: ADME, organism-based; parameters: route oral, dose 45 mg/kg, time 9 day; settings: in vivo, 216 h
[23] = as §4, with “5” for “45”; type: ADME, organism-based; parameters: dose 5 mg/kg, time 9 day; settings: in vivo, 216 h
[24] = Ratio of IC90 for inverse agonist activity at RORgammat in human whole blood assessed as IL-17 production by ELISA to drug concentration in IL-23 induced acanthosis in Th17 mouse measured as (3R,5S)-3-Fluoro-5-((3aR,9bR)-9b-((4-fluorophenyl)sulfonyl)-7-(perfluoropropan-2-yl)-2,3,3a,4,5,9b-hexahydro-1H-benzo[e]indole-3-carbonyl)-1-(2-hydroxy-2-methylpropyl)pyrrolidin-2-one at 5 mg/kg, po qd administered for 9 days 2 hrs before IL-23 injection
[25] = Ratio of IC90 for inverse agonist activity at RORgammat in human whole blood assessed as IL-17 production by ELISA to drug concentration in IL-23 induced acanthosis in Th17 mouse measured as (3R,5S)-3-Fluoro-5-((3aR,9bR)-9b-((4-fluorophenyl)sulfonyl)-7-(perfluoropropan-2-yl)-2,3,3a,4,5,9b-hexahydro-1H-benzo[e]indole-3-carbonyl)-1-(2-hydroxy-2-methylpropyl)pyrrolidin-2-one at 15 mg/kg, po qd …
[26] = as §3, with “5” for “15”, “for” for “for 9 days”, “injection measured on day 1” for “injection”; type: ADME, organism-based; settings: in vivo, 24 h, time 1 day, read-out: Ct
[27] = as §3, with “45” for “15”, “for” for “for 9 days”, “injection measured on day 11” for “injection”; type: ADME, organism-based; settings: in vivo, 24 h, time 1 day, read-out: Ct

## [2H]C([2H])([2H])N1C(=O)[C@H](F)C[C@H]1C(=O)N1CC[C@@]2(S(=O)(=O)c3ccc(F)cc3)c3ccc(C(F)(C(F)(F)F)C(F)(F)F)cc3CC[C@@H]12
[1]
  half-life: > 120 min
[2]
  half-life: > 120 min
[3]
  half-life: > 120 min

## [2H]C([2H])([2H])N1C(=O)C(F)(F)C[C@H]1C(=O)N1CC[C@@]2(S(=O)(=O)c3ccc(F)cc3)c3ccc(C(F)(C(F)(F)F)C(F)(F)F)cc3CC[C@@H]12
[1]
  half-life: 88 min
[2]
  half-life: 57 min
[3]
  half-life: 58 min

## CO[C@H]1C[C@@H](C(=O)N2CC[C@@]3(S(=O)(=O)c4ccc(F)cc4)c4ccc(C(F)(C(F)(F)F)C(F)(F)F)cc4CC[C@@H]23)N(C)C1=O
[1]
  half-life: 94 min
[2]
  half-life: > 120 min
[3]
  half-life: 43 min

## CN1C(=O)[C@@H](O)C[C@H]1C(=O)N1CC[C@@]2(S(=O)(=O)c3ccc(F)cc3)c3ccc(C(F)(C(F)(F)F)C(F)(F)F)cc3CC[C@@H]12
[1]
  half-life: 25 min
[2]
  half-life: 27 min
[3]
  half-life: 10 min

## N#CCCN1C(=O)[C@H](F)C[C@H]1C(=O)N1CC[C@@]2(S(=O)(=O)c3ccc(F)cc3)c3ccc(C(F)(C(F)(F)F)C(F)(F)F)cc3CC[C@@H]12
[1]
  half-life: 79 min
[4]
  pEC50: 7.52
[5]
  pEC50: 7.74
[2]
  half-life: > 120 min
[3]
  half-life: 45 min

## CC(C)N1C(=O)[C@H](F)C[C@H]1C(=O)N1CC[C@@]2(S(=O)(=O)c3ccc(F)cc3)c3ccc(C(F)(C(F)(F)F)C(F)(F)F)cc3CC[C@@H]12
[1]
  half-life: 52 min
[2]
  half-life: 50 min
[3]
  half-life: 45 min

## O=C1[C@H](F)C[C@@H](C(=O)N2CC[C@@]3(S(=O)(=O)c4ccc(F)cc4)c4ccc(C(F)(C(F)(F)F)C(F)(F)F)cc4CC[C@@H]23)N1Cc1ccc(F)cc1
[1]
  half-life: 29 min
[4]
  pEC50: 7.24
[5]
  pEC50: 8.15
[2]
  half-life: 24 min
[3]
  half-life: 35 min

## CC(C)(CN1C(=O)[C@H](F)C[C@H]1C(=O)N1CC[C@@]2(S(=O)(=O)c3ccc(F)cc3)c3ccc(C(F)(C(F)(F)F)C(F)(F)F)cc3CC[C@@H]12)OP(=O)(O)O
[6]
  AUC: 30.9 µM·h
[7]
  AUC: 274.3 µM·h
[8]
  inhibition in vivo at 15 mg/kg: 38%
[9]
  concentration: 1360 nM
[10]
  inhibition in vivo at 45 mg/kg: 67%
[11]
  solubility: ≥ 4700 µg/mL
[12]
  AUC: 162.9 µM·h
[13]
  Cmax: 2580 nM
[14]
  Activity: Non-Toxic
[15]
  Cmax: 650 nM
[16]
  concentration: 5820 nM
[17]
  concentration: 480 nM
[18]
  concentration: 150 nM
[19]
  AUC: 13.9 µM·h
[20]
  AUC: 45.2 µM·h
[21]
  Ratio: 13.9
[22]
  Cmax: 8340 nM
[23]
  AUC: 9 µM·h
[24]
  Ratio: 0.4
[25]
  Ratio: 3.2
[26]
  concentration: 210 nM
[27]
  concentration: 910 nM

## CN1C(=O)CC[C@H]1C(=O)N1CC[C@@]2(S(=O)(=O)c3ccc(F)cc3)c3ccc(C(F)(C(F)(F)F)C(F)(F)F)cc3CC[C@@H]12
[1]
  half-life: 116 min
[2]
  half-life: 87 min
[3]
  half-life: > 120 min

## O=C(O)CN1C(=O)[C@H](F)C[C@H]1C(=O)N1CC[C@@]2(S(=O)(=O)c3ccc(F)cc3)c3ccc(C(F)(C(F)(F)F)C(F)(F)F)cc3CC[C@@H]12
[5]
  pEC50: 5.82

## N#Cc1ccc(CN2C(=O)[C@H](F)C[C@H]2C(=O)N2CC[C@@]3(S(=O)(=O)c4ccc(F)cc4)c4ccc(C(F)(C(F)(F)F)C(F)(F)F)cc4CC[C@@H]23)cc1
[1]
  half-life: 74 min
[5]
  pEC50: 7.52
[2]
  half-life: 58 min
[3]
  half-life: 61 min

## O=C1[C@H](F)C[C@@H](C(=O)N2CC[C@@]3(S(=O)(=O)c4ccc(F)cc4)c4ccc(C(F)(C(F)(F)F)C(F)(F)F)cc4CC[C@@H]23)N1CCO
[1]
  half-life: 60 min
[2]
  half-life: > 120 min
[3]
  half-life: 36 min

## CN1C(=O)[C@H](F)C[C@H]1C(=O)N1CC[C@@]2(S(=O)(=O)c3ccc(F)cc3)c3ccc(C(F)(C(F)(F)F)C(F)(F)F)cc3CC[C@@H]12
[1]
  half-life: 75 min
[2]
  half-life: > 120 min
[3]
  half-life: 55 min

## [2H]C([2H])([2H])N1C(=O)[C@@H](F)C[C@H]1C(=O)N1CC[C@@]2(S(=O)(=O)c3ccc(F)cc3)c3ccc(C(F)(C(F)(F)F)C(F)(F)F)cc3CC[C@@H]12
[1]
  half-life: 85 min
[2]
  half-life: > 120 min
[3]
  half-life: 48 min

Source: ChEMBL document CHEMBL4665919, “Novel Tricyclic Pyroglutamide Derivatives as Potent RORγt Inverse Agonists Identified using a Virtual Screening Approach” (ACS Med Chem Lett, 2020)
